This note sets out measurements from US12298319B2, “Method for measuring alpha value of muscarinic M1 receptor positive allosteric modulators” (Takeda Pharmaceutical Company Limited, priority 2017, dated 2025).

Test [1] concerns the target T1, human M1R (Homo sapiens, UniProt P11229).
T1 sequence (P11229 1-460): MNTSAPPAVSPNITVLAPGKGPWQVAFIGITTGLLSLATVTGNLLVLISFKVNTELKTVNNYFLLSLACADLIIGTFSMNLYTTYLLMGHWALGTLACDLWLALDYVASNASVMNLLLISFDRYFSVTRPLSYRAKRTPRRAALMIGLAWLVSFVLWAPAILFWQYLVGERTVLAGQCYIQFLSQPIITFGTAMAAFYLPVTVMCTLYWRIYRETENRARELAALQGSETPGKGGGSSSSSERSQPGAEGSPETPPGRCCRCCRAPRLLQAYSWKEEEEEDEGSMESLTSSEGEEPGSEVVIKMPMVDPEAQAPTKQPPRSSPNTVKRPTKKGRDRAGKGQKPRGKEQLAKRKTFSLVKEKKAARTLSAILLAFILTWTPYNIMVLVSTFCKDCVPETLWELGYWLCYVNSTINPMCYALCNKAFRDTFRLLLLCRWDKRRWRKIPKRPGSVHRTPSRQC
Kind of test: Binding modulation assay, displacement of [3H]-pirenzepine by ACh, FreeStyle 293 cell membranes. Further details: expressed in transfected cells; host or cells: FreeStyle 293 cells (transient), cell membranes. As to conditions: for Kb: affinity of the PAM to the free M1R, read-out: pKB Mean (converted); for log α Mean / α-value: binding cooperativity between ACh and PAM. How it is done: Binding assay was performed in 96-well plate format. Cell membranes from FreeStyle 293 cells transiently expressed human M1R were incubated with test compounds, ACh and 4 nM [^3H]-pirenzepine in an assay buffer (20 mM HEPES, 100 mM NaCl, 10 mM MgCl2, 0.1% fatty acid free BSA). After 2 h incubation at room temperature, cell membranes were transferred to GF/C filter plates (PerkinElmer, Massachusetts, USA) using cell-harvester (PerkinElmer) and washed 5 times with 300 μL of 50 mM Tris-HCl. Then, GF/C plates were dried at 42° C. 25 μL of microscint 0 (PerkinElmer) was added and the radioactivity was measured by Topcount (PerkinElmer). Non-specific bound was defined in the presence of 10 μM atropine.
All data were analyzed using GraphPad Prism 5 software (GraphPad Software Inc., California, USA). Radioligand binding data were globally fitted to the following allosteric ternary complex model:
[formula] where Y is the percentage of specific binding; [A], [B], and [C] are the concentrations of ACh, the allosteric modulator, and [^3H]-pirenzepine, respectively; KA, KB, and KC denote the equilibrium dissociation constants of ACh, the allosteric modulator, and [^3H]-pirenzepine, respectively; and αAB and […] are the cooperativities between the allosteric modulator and ACh or [^3H]-pirenzepine, respectively. […] The functional interactions between M1 PAMs and ACh were globally fitted to the following operational model of allosterism (Nat Rev Drug Discov. 2009; 8(1): 41-54 and Trends Pharmacol Sci. 2007; 28(8): 382-9)

The target in test [2] is T2, M2R (Homo sapiens, UniProt P08172).
T2 sequence (P08172 1-466): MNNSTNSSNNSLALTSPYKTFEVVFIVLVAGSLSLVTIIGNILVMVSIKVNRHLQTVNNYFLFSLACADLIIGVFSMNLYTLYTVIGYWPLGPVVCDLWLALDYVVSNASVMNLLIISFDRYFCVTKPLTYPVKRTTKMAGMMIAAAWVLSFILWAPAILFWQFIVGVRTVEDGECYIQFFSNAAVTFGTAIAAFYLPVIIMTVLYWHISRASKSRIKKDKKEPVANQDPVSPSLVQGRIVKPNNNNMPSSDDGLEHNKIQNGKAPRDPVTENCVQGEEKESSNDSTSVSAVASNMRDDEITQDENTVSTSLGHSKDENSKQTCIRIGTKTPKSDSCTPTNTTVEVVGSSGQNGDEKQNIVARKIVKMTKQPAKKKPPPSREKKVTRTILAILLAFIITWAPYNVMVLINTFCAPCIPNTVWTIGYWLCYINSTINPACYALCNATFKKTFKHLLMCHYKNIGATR
The test can be described thus: Ca2+ flux PAM activity against other muscarinic receptor subtypes, M2R. Format: cell-based. Conditions: in the presence of EC20 ACh; read-out: PAM activity against other muscarinic receptor subtypes M2R pIP.

In test [3] the test system is isolated mouse ileum. The test can be described thus: In vitro Magnus assay, EFS-induced ileum contraction. As to conditions: for Ileum contraction at 1 μM (% of cont.) Mean: isolated mouse ileum with EFS. The procedure:
After overnight fasting, mice were sacrificed by decapitation. The ileum was quickly dissected out and suspended in ice-cold Krebs solution with the following composition (in mM): NaCl, 120.7; KCl, 5.9; CaCl2, 2.5; MgCl2, 1.2; […], 15.5; NaH2PO4, 1.2; and glucose, 11.5. Longitudinal segments of ileum (10-15 mm long) were detached of mesentery and adipose tissue, and mounted in organ baths containing 10 mL of Krebs solution aerated with 95% O2/5% CO2. Bath temperature was maintained at 37° C. The isolated ileum was given a passive load of 0.5 g. The contractile response of the isolated ileum was continuously recorded with isometric transducer (MLT050/A, ADInstruments, New South Wales, Australia) and recorder (PowerLab 8/30 ML870 and Octal Bridge Amp ML228, ADInstruments).
Platinum electrodes (3-20 mm apart, Iwashiya Kishimoto Medical Instruments, Kyoto, Japan) were mounted on both sides of the isolated ileum. The electrodes were connected to an electric stimulator (SEG-3104, Nihon Kohden, Tokyo, Japan) and an amplifier (SIG-3140, Nihon Kohden) for EFS with square wave pulses (20 V over the electrodes, 50 ms duration, and 20 Hz frequency); pulse trains were lasting for 10 s with 20 s pause.
The EFS produced sustained tonic contraction, followed by relaxation. The contraction was measured as the maximum strength from the baseline. The effects of experimental substances on the maximum contraction were measured. At the beginning of each experiment, a series of control EFS cycles was tested for more than 1 h to observe stability of contractile response. The ileum with a steady contractile response elicited by control EFS during the 1 h was used to investigate the effect of test compounds.
After responses to control EFS reached a steady-state, the compounds were added to the Magnus bath cumulatively, without washing between the subsequent doses. The interval between two adjacent doses was always at least 5 min, thus the isolated preparations receive at least 10 pulses in each dose of the compounds. After cumulating all doses of compounds, the bath was washed three times, and the ilea were allowed to rest for further 30 min. The effect of each concentration of the compounds on ileum contraction induced by EFS was calculated from the average value of 10 responses of the maximum strength. Then the ileum contractile response was expressed as a ratio (%) of the mean maximum contraction to that obtained with the pre-treated DMSO (solvent) to obtain concentration-response curve. Due to very small size of relaxations, the effects of the compounds on them was not be analyzed.

As for `Cn1cc(-c2ccc(CN3Cc4cccc(-c5ccn[nH]5)c4C3=O)cc2)cn1` [Compound G, 2-(4-(1-methyl-1H-pyrazol-4-yl)benzyl)-7-(1H-pyrazol-5-yl)isoindolin-1-one], in test [1], the Kb was 14.8 µM and the “log α Mean” value is reported as 0.56. Besides, in test [2], the EC50 is above 10 µM. Further, the “Ileum contraction at 1 μM (% of cont.) Mean” value in test [3] is recorded as 93 % of cont.

As for `Cn1cc(-c2ccc(Cc3cc4c(=O)n([C@H]5CCCC[C@@H]5O)cnc4c4ccccc34)cn2)cn1` [Compound C, 3-((1S,2S)-2-hydroxycyclohexyl)-6-((6-(1-methyl-1H-pyrazol-4-yl)pyridin-3-yl)methyl)benzo[h]quinazoline-4(3H)-one, reference compound], in test [1], the Kb was 0.288 µM, the “log α Mean” value is 3.25 and the α-value came to 1786. Further, the EC50 in test [2] is above 10 µM. Also, the “Ileum contraction at 1 μM (% of cont.) Mean” value in test [3] is reported as 104 % of cont.

As to `Cn1cc(-c2ccc(CN3Cc4cccc(Oc5c(F)cccc5C#N)c4C3=O)cc2)cn1` [Compound B, 3-fluoro-2-((2-(4-(1-methyl-1H-pyrazol-4-yl)benzyl)-3-oxo-2,3-dihydro-1H-isoindol-4-yl)oxy)benzonitrile], in test [1], the Kb was 0.977 µM, the “log α Mean” value is 1.18 and the α-value was found to be 16. Also, the EC50 in test [2] is above 10 µM. The “Ileum contraction at 1 μM (% of cont.) Mean” value in test [3] was 97 % of cont. Further, the “effect on EFS-induced ileum contraction” value in test [3] (up to 1 μM) was “no effect”.

Compound `Cc1c(Cc2ccc(-n3cccn3)cc2)cc2c(c1F)CN([C@H]1COCC[C@@H]1O)C2=O` [Compound D, 4-fluoro-2-[(3S,4S)-4-hydroxytetrahydro-2H-pyran-3-yl]-5-methyl-6-[4-(1H-pyrazol-1-yl)benzyl]-2,3-dihydro-1H-isoindol-1-one] came in with a α-value in test [1] of 199.

On to `Cn1ccc(-c2ccc(CN3Cc4cccc(O[C@H]5CCCC[C@@H]5O)c4C3=O)cc2)n1` [Compound A, 7-(((1S,2S)-2-hydroxycyclohexyl)oxy)-2-(4-(1-methyl-1H-pyrazol-3-yl)benzyl)isoindolin-1-one], for which, in test [1], the Kb was 26.3 µM, the “log α Mean” value is recorded as 3.30 and the α-value amounted to 2371. Also, the EC50 in test [2] was above 10 µM. Moreover, the “augmentation of EFS-induced ileum contraction” value in test [3] (0.1 nM-1 μM) is “concentration-dependent augmentation”. The “Ileum contraction at 1 μM (% of cont.) Mean” value in test [3] is 116 % of cont. Further, the “augmentation of EFS-induced ileum contraction with telenzepine” value in test [3] (with 1 nM of telenzepine) is on record as “suppressed”.

With `Cn1cc(-c2ccc(CN3Cc4cccc(OCCN5CCCCC5)c4C3=O)cc2)cn1` [Compound F, 2-(4-(1-methyl-1H-pyrazol-4-yl)benzyl)-7-(2-(piperidin-1-yl)ethoxy)isoindolin-1-one], in test [1], the Kb is 9.12 µM and the “log α Mean” value is recorded as 1.54. For the same compound, in test [2], the EC50 is above 10 µM. In addition, the “Ileum contraction at 1 μM (% of cont.) Mean” value in test [3] is 102 % of cont.

For the compound `O=c1c2cn(Cc3ccc(-n4cccn4)cc3)c3ccccc3c-2nn1-c1ccccc1F` [Compound E, 2-(2-fluorophenyl)-5-(4-(1H-pyrazol-1-yl)benzyl)-2,5-dihydro-3H-pyrazolo[4,3-c]quinolin-3-one, reference compound], in test [1], the Kb was 3.09 µM and the “log α Mean” value is listed as 2.67. Besides, the EC50 in test [2] is above 10 µM. Besides, the “Ileum contraction at 1 μM (% of cont.) Mean” value in test [3] was 106 % of cont.
